According to the NIST ThermoML archive (doi:10.1016/j.jct.2006.07.004):

Assay: xn = mol fraction of the nth substance listed
Conditions: 101 kPa, Liquid; for viscosity: Capillary tube (Ostwald / Ubbelohde) method; for mass density: Vibrating tube method

ClC(Cl)Cl [trichloromethane] + CC(=O)CC(C)C
Conditions	mass density, 283.15 K [kg/m3]	mass density, 293.15 K [kg/m3]	mass density, 303.15 K [kg/m3]	mass density, 313.15 K [kg/m3]	viscosity, 283.15 K [mPa·s]	viscosity, 293.15 K [mPa·s]	viscosity, 303.15 K [mPa·s]	viscosity, 313.15 K [mPa·s]
x1 = 0.0847	849	839.4	829.9	820	0.685	0.598	0.531	0.472
x1 = 0.1841	898.2	888.1	878	867.5	0.719	0.63	0.558	0.493
x1 = 0.276	947.2	936.6	925.8	914.9	0.755	0.659	0.577	0.513
x1 = 0.3529	991.1	980.1	968.7	957.1	0.78	0.678	0.596	0.526
x1 = 0.4467	1048.8	1037	1025	1012.6	0.808	0.696	0.616	0.542
x1 = 0.506	1087.7	1075.3	1062.8	1050	0.812	0.703	0.62	0.551
x1 = 0.6079	1159.3	1146	1132.5	1118.7	0.814	0.704	0.623	0.557
x1 = 0.6959	1226.7	1212.4	1197.9	1183.2	0.798	0.696	0.619	0.554
x1 = 0.8213	1332.6	1316.7	1300.6	1284.1	0.746	0.664	0.592	0.533
x1 = 0.9067	1412.3	1395	1377.7	1359.8	0.689	0.629	0.56	0.503
x1 = 1	1507.3	1488.4	1469.4	1450	0.629	0.573	0.516	0.468
